Assay results reported in patent USRE38332E1, “Selected soluble esters of hydroxyl-containing indolocarbazoles” (Cephalon, Inc., priority 1995, dated 2003).

Tested on: ChAT activity in spinal cord cultures
Test: Effect of indolocarbazole esters on ChAT activity in dissociated spinal cord cultures
Type: cell-based, rat
Conditions: 500 nM
Protocol: The effect of indolocarbazole esters of the invention on ChAT activity was assayed in dissociated spinal cord cultures prepared from fetal rats. ChAT is the enzyme that catalyzes the synthesis of the neurotransmitter acetylcholine, and it is a specific biochemical marker for cholinergic neurons. In the spinal cord, the large majority of cholinergic neurons are motor neurons. Assay of this enzyme may thus be used as an indication of the effects of a factor (or factors) on the survival and/or differentiation of cholinergic neurons and/or regulation of this enzyme. The procedure used for the assay is that described in Example 6 of WO 94/02488. Fourteen esters were tested in the spinal cord ChAT assay to determine their relative efficacy, and the results are summarized in Table 4.

Row | Structure (SMILES) | Spinal Cord ChAT Activity (% of Control) 500 nM
1 | COC1(COC(=O)c2ccc[n+](C)c2)CC2OC1(C)n1c3ccccc3c3c4c(c5c6ccccc6n2c5c31)C(=O)NC4.[I-] (centres unmarked) [Example 6, (I-5)-Pyridine-3-carboxylate Methiodide] | 149 % of Control
2 | COC1(COC(=O)C(N)Cc2cnc[nH]2)CC2OC1(C)n1c3ccccc3c3c4c(c5c6ccccc6n2c5c31)C(=O)NC4.Cl.Cl (centres unmarked) [Example 9, (I-5) Histidinate Dihydrochloride] | 158 % of Control
3 | COC1(COC(=O)c2cccnc2)CC2OC1(C)n1c3ccccc3c3c4c(c5c6ccccc6n2c5c31)C(=O)NC4.Cl (centres unmarked) [Example 5, (I-5)-Pyridine-3-carboxylate Hydrochloride] | 137 % of Control
4 | COC1(COC(=O)C(C)N)CC2OC1(C)n1c3ccccc3c3c4c(c5c6ccccc6n2c5c31)C(=O)NC4.Cl (centres unmarked) [Example 3, (I-5)-Alaninate Hydrochloride] | 151 % of Control
5 | COC1(COC(=O)C(N)CCC(=O)O)CC2OC1(C)n1c3ccccc3c3c4c(c5c6ccccc6n2c5c31)C(=O)NC4.Cl (centres unmarked) [Example 13, (I-5)-Glutamate Hydrochloride] | 168 % of Control
6 | COC1(COC(=O)CN(C)C)CC2OC1(C)n1c3ccccc3c3c4c(c5c6ccccc6n2c5c31)C(=O)NC4.Cl (centres unmarked) [Example 7, (I-5)-N,N-Dimethylglycinate Hydrochloride] | 132 % of Control

Same assay, conditions: 1000 nM

Row | Structure (SMILES) | Spinal Cord ChAT Activity (% of Control) 1000 nM
7 | COC1(COC(=O)c2ccc[n+](C)c2)CC2OC1(C)n1c3ccccc3c3c4c(c5c6ccccc6n2c5c31)C(=O)NC4.[I-] (centres unmarked) [Example 6, (I-5)-Pyridine-3-carboxylate Methiodide] | 150 % of Control
8 | COC1(COC(=O)C(N)Cc2cnc[nH]2)CC2OC1(C)n1c3ccccc3c3c4c(c5c6ccccc6n2c5c31)C(=O)NC4.Cl.Cl (centres unmarked) [Example 9, (I-5) Histidinate Dihydrochloride] | 143 % of Control
9 | COC1(COC(=O)c2cccnc2)CC2OC1(C)n1c3ccccc3c3c4c(c5c6ccccc6n2c5c31)C(=O)NC4.Cl (centres unmarked) [Example 5, (I-5)-Pyridine-3-carboxylate Hydrochloride] | 139 % of Control
10 | COC1(COC(=O)C(C)N)CC2OC1(C)n1c3ccccc3c3c4c(c5c6ccccc6n2c5c31)C(=O)NC4.Cl (centres unmarked) [Example 3, (I-5)-Alaninate Hydrochloride] | 132 % of Control
11 | COC1(COC(=O)C(N)CCC(=O)O)CC2OC1(C)n1c3ccccc3c3c4c(c5c6ccccc6n2c5c31)C(=O)NC4.Cl (centres unmarked) [Example 13, (I-5)-Glutamate Hydrochloride] | 142 % of Control
12 | COC1(COC(=O)CN(C)C)CC2OC1(C)n1c3ccccc3c3c4c(c5c6ccccc6n2c5c31)C(=O)NC4.Cl (centres unmarked) [Example 7, (I-5)-N,N-Dimethylglycinate Hydrochloride] | 151 % of Control

Same assay, conditions: 10 μM

Row | Structure (SMILES) | increase of ChAT activity over control
13 | COC1(COC(=O)c2cccnc2)CC2OC1(C)n1c3ccccc3c3c4c(c5c6ccccc6n2c5c31)C(=O)NC4.Cl (centres unmarked) [Example 5, (I-5)-Pyridine-3-carboxylate Hydrochloride] | *This compound increases ChAT activity 169% over control at 10 μM

Tested on: not listed separately
Test: In vitro metabolism of I-5 esters in rat plasma
Type: in vitro ADME
Conditions: 5000 ng/mL, 37° C.
Protocol: (§1) Freshly-collected plasma from male Sprague-Dawley rats and presumably-healthy drug-free male humans was pooled and immediately frozen. The plasma was kept frozen at −90° C. and each aliquot was thawed only once for use in incubations. Stock solutions of the indolocarbazole esters were prepared in DMSO and were used to prepare standard curves in plasma that had been boiled to two minutes. Boiled plasma was divided into 500 μL aliquots, mixed with an aliquot of the internal standard, and spiked with the respective stock indolocarbazole ester solutions to prepare the standard curve. Thawed plasma was divided into 500 μL aliquots, placed in screw-cap vials, mixed with internal standard, and spiked with stock solutions of the respective indolocarbazole esters to yield a nominal concentration of 5000 ng/mL.
(§2) Incubations were then performed at 37° C. in a shaking water bath for 0, 0.5, 1, 2, 5, 10, 15, 30, and 60 minutes and quenched by addition of 5 mL methylene chloride. All tubes (standards and experimentals) were extracted for 15 minutes by shaking, and centrifuged. The methylene chloride layer was removed, dried under a stream of nitrogen, and reconstituted in DMSO. Fifty μL of the reconstituted extracts were analyzed by reverse-phase HPLC with detection at 290 nm. The mobile phase and gradient conditions are given below: […]

Row | Structure (SMILES) | maximum rates of hydrolysis
14 | COC1(COC(=O)C(C)N)CC2OC1(C)n1c3ccccc3c3c4c(c5c6ccccc6n2c5c31)C(=O)NC4.Cl (centres unmarked) [Example 3, (I-5)-Alaninate Hydrochloride] | more extensively hydrolyzed

Tested on: not listed separately
Test: In vitro metabolism of I-5 esters in human plasma
Type: in vitro ADME
Conditions: 5000 ng/mL, 37° C.
Protocol: as §1, §2

Row | Structure (SMILES) | hydrolysis, conversion to indolocarbazole I-5
15 | COC1(COC(=O)C(C)N)CC2OC1(C)n1c3ccccc3c3c4c(c5c6ccccc6n2c5c31)C(=O)NC4.Cl (centres unmarked) [Example 3, (I-5)-Alaninate Hydrochloride] | not detectable

Tested on: not listed separately
Test: Solubility of the esters at 1 mg/ml in water and buffer solutions
Conditions: 10 mM Tris buffer pH 9
Protocol: Indolocarbazole esters were dissolved in water, dimethylsulfoxide (DMSO) and the following buffer solutions to determine solubility and to observe conversion to indolocarbazole I-5. Samples were analyzed by HPLC using UV detection at 290 nm.
Solution 2 was a 10 mM acetate buffer at pH 4 which was prepared by weighing 0.68 g of sodium acetate 3H2O into 500 ml of water and adjusting the pH with acetic acid.
Solution 3 was a 10 mM phosphate buffer, pH 7, which was prepared by weighing 0.30 g of monobasic sodium phosphate and 0.36 g of dibasic sodium phosphate into 500 ml of water, stirring until completely dissolved, and adjusting the pH with hydrochloric acid.
Solution 4 was a 10 mM Tris buffer, pH 9, which was prepared by weighing 0.79 g of Tris (tris(hydroxymethyl)aminomethane hydrochloride) into 500 ml of water, stirring until completely dissolved, and adjusting the pH with sodium hydroxide.
Sample solutions were prepared by weighing 0.5-1 mg of the indolocarbazole ester into an amber 1.5 ml autosampler vial, to which the appropriate quantity of one of the buffer solutions was added, in order to achieve a final concentration of 1 mg/ml. The sample solutions were vortexed and sonicated for 10 minutes. Fifty μl aliquots were placed into 1.5 ml amber autosampler vials. The reaction was quenched at a selected time interval by addition of 450 μl DMSO to the vial.

Row | Structure (SMILES) | solubility in Tris buffer
16 | COC1(COC(=O)c2ccc[n+](C)c2)CC2OC1(C)n1c3ccccc3c3c4c(c5c6ccccc6n2c5c31)C(=O)NC4.[I-] (centres unmarked) [Example 6, (I-5)-Pyridine-3-carboxylate Methiodide] | not completely soluble
17 | COC1(COC(=O)C(N)Cc2cnc[nH]2)CC2OC1(C)n1c3ccccc3c3c4c(c5c6ccccc6n2c5c31)C(=O)NC4.Cl.Cl (centres unmarked) [Example 9, (I-5) Histidinate Dihydrochloride] | not completely soluble
18 | COC1(COC(=O)c2cccnc2)CC2OC1(C)n1c3ccccc3c3c4c(c5c6ccccc6n2c5c31)C(=O)NC4.Cl (centres unmarked) [Example 5, (I-5)-Pyridine-3-carboxylate Hydrochloride] | not completely soluble
19 | COC1(COC(=O)C(C)N)CC2OC1(C)n1c3ccccc3c3c4c(c5c6ccccc6n2c5c31)C(=O)NC4.Cl (centres unmarked) [Example 3, (I-5)-Alaninate Hydrochloride] | not completely soluble
20 | COC1(COC(=O)CN(C)C)CC2OC1(C)n1c3ccccc3c3c4c(c5c6ccccc6n2c5c31)C(=O)NC4.Cl (centres unmarked) [Example 7, (I-5)-N,N-Dimethylglycinate Hydrochloride] | not completely soluble

Same assay, conditions: 10 mM acetate buffer pH 4

Row | Structure (SMILES) | solubility in acetate buffer
21 | COC1(COC(=O)c2ccc[n+](C)c2)CC2OC1(C)n1c3ccccc3c3c4c(c5c6ccccc6n2c5c31)C(=O)NC4.[I-] (centres unmarked) [Example 6, (I-5)-Pyridine-3-carboxylate Methiodide] | not completely soluble
22 | COC1(COC(=O)C(N)Cc2cnc[nH]2)CC2OC1(C)n1c3ccccc3c3c4c(c5c6ccccc6n2c5c31)C(=O)NC4.Cl.Cl (centres unmarked) [Example 9, (I-5) Histidinate Dihydrochloride] | completely soluble
23 | COC1(COC(=O)c2cccnc2)CC2OC1(C)n1c3ccccc3c3c4c(c5c6ccccc6n2c5c31)C(=O)NC4.Cl (centres unmarked) [Example 5, (I-5)-Pyridine-3-carboxylate Hydrochloride] | not completely soluble
24 | COC1(COC(=O)C(C)N)CC2OC1(C)n1c3ccccc3c3c4c(c5c6ccccc6n2c5c31)C(=O)NC4.Cl (centres unmarked) [Example 3, (I-5)-Alaninate Hydrochloride] | completely soluble
25 | COC1(COC(=O)CN(C)C)CC2OC1(C)n1c3ccccc3c3c4c(c5c6ccccc6n2c5c31)C(=O)NC4.Cl (centres unmarked) [Example 7, (I-5)-N,N-Dimethylglycinate Hydrochloride] | completely soluble

Same assay, conditions: 10 mM phosphate buffer pH 7

Row | Structure (SMILES) | solubility in phosphate buffer
26 | COC1(COC(=O)c2ccc[n+](C)c2)CC2OC1(C)n1c3ccccc3c3c4c(c5c6ccccc6n2c5c31)C(=O)NC4.[I-] (centres unmarked) [Example 6, (I-5)-Pyridine-3-carboxylate Methiodide] | not completely soluble
27 | COC1(COC(=O)C(N)Cc2cnc[nH]2)CC2OC1(C)n1c3ccccc3c3c4c(c5c6ccccc6n2c5c31)C(=O)NC4.Cl.Cl (centres unmarked) [Example 9, (I-5) Histidinate Dihydrochloride] | not completely soluble
28 | COC1(COC(=O)c2cccnc2)CC2OC1(C)n1c3ccccc3c3c4c(c5c6ccccc6n2c5c31)C(=O)NC4.Cl (centres unmarked) [Example 5, (I-5)-Pyridine-3-carboxylate Hydrochloride] | not completely soluble
29 | COC1(COC(=O)C(C)N)CC2OC1(C)n1c3ccccc3c3c4c(c5c6ccccc6n2c5c31)C(=O)NC4.Cl (centres unmarked) [Example 3, (I-5)-Alaninate Hydrochloride] | not completely soluble
30 | COC1(COC(=O)CN(C)C)CC2OC1(C)n1c3ccccc3c3c4c(c5c6ccccc6n2c5c31)C(=O)NC4.Cl (centres unmarked) [Example 7, (I-5)-N,N-Dimethylglycinate Hydrochloride] | not completely soluble

Same assay, conditions: water (Solution 1)

Row | Structure (SMILES) | solubility in water
31 | COC1(COC(=O)c2ccc[n+](C)c2)CC2OC1(C)n1c3ccccc3c3c4c(c5c6ccccc6n2c5c31)C(=O)NC4.[I-] (centres unmarked) [Example 6, (I-5)-Pyridine-3-carboxylate Methiodide] | not completely soluble
32 | COC1(COC(=O)C(N)Cc2cnc[nH]2)CC2OC1(C)n1c3ccccc3c3c4c(c5c6ccccc6n2c5c31)C(=O)NC4.Cl.Cl (centres unmarked) [Example 9, (I-5) Histidinate Dihydrochloride] | completely soluble
33 | COC1(COC(=O)c2cccnc2)CC2OC1(C)n1c3ccccc3c3c4c(c5c6ccccc6n2c5c31)C(=O)NC4.Cl (centres unmarked) [Example 5, (I-5)-Pyridine-3-carboxylate Hydrochloride] | not completely soluble
34 | COC1(COC(=O)C(C)N)CC2OC1(C)n1c3ccccc3c3c4c(c5c6ccccc6n2c5c31)C(=O)NC4.Cl (centres unmarked) [Example 3, (I-5)-Alaninate Hydrochloride] | completely soluble
35 | COC1(COC(=O)CN(C)C)CC2OC1(C)n1c3ccccc3c3c4c(c5c6ccccc6n2c5c31)C(=O)NC4.Cl (centres unmarked) [Example 7, (I-5)-N,N-Dimethylglycinate Hydrochloride] | completely soluble
